Data reported in patent publication US20100197710A1, “Methods Of Activating IRS-1 And AKT” (MELIOR PHARMACEUTICALS I, INC., priority 2007, published 2010).

Columns and labels:
[1] = test system: Db/Db Leptin Receptor deficient diabetes/metabolic syndrome animal model; assay: In vivo Db/Db mouse study, glucose study; settings: Db/Db mice
Experimental: (§1) Db/Db and Db/lean mice were obtained from Harlan at 6 weeks of age. Mice were housed 3 per cage and fed ad libitum normal rodent chow. Mice were kept on a 12 hour light:dark cycle.
(§2) The study was initiated when mice reached an age of 8 weeks and their baseline blood glucose level was greater than 200 mg/dl. Compound 102 was formulated in PBS:2N HCl (99:1) at concentrations of 0.5, 1.5 and 5 mg/ml. Mice were dosed at volumes of 10 ml/kg to produce doses of 5, 15 and 50 mg/kg/dose. Mice were dosed twice per day at an 8 hour interval (8 am and 4 pm) during the light cycle.
For the acute blood glucose measurements, blood glucose level was measured after the animals received their first dose of Compound 102. Blood glucose level was measured two hours after this initial injection.
In this study, mice were dosed with Compound 102 IP, twice/day over the course of four weeks.

Db/Db mice = assay: In vivo Db/Db mouse study, obesity study; settings: 28 days
Experimental: as §1, §2
Mice were administered vehicle or drug (i.e., Compound 102) (5, 15, and 50 mg/kg) twice per day (bid) for the 28 days. Mouse weight and food intake were monitored daily. Food intake is reported as food intake (grams) per mouse per 24 hour period.

IRS-1 = IRS-1 phosphorylation in vivo (immunoprecipitation); settings: mice, fat pads and livers removed ninety minutes after drug administration, FIGS. 2A, 2B
Experimental: (§3) The following studies were conducted to determine whether Compound 102 activated lyn kinase in vivo. This determination was conducted by measuring activation (phosphorylation) of downstream substrates of Lyn in mice treated with Compound 102. Referring to FIGS. 2A, 2B, and 3, mice were administered Compound 102 at the indicated dose. Ninety minutes after drug administration, fat pads and livers were removed. IRS-1 phosphorylation was measured by immunoprecipitation using an anti-phosphotyrosine antibody and probing with either IRS-1 or AKT antibody.

Zucker rats = assay: In vivo Zucker rat glucose study; settings: 30 mg/kg ip, glucose 1.5 g/kg oral gavage, 30 and 270 minutes after glucose
Experimental: Zucker rats and corresponding lean rats were supplied by Harlan. Rats were fed a normal diet, ad libitum, and kept on a 12 hour light/dark cycle. Rats were housed 3 per cage. At 12 weeks of age, Zucker rats were administered Compound 102 at a concentration of 30 mg/kg (ip). Blood glucose level was measured 30 minutes after administration. Forty-five minutes after drug administration, animals were administered a glucose solution (1.5 g/kg) by oral gavage. Blood glucose level was measured every 30 minutes after gavage for 4.5 hours. There were 3 groups with 3 animals per group: 1) 3 Zucker leans (no drug; no glucose treatment); 2) Zucker vehicle treated group (glucose challenged); and 3) Zucker Compound 102 treatment (30 mg/kg); glucose challenged.

[2] = test system: Male CD1/ICR mice fed Western Diet; assay: Western Diet study (weight, food intake, fat pads); assay type: in vivo
Experimental: Male CD1/ICR mice were obtained from Harlan. The study was started when mice were 8 weeks of age. Prior to initiation of the study mice fasted for 24 hours. Mice were fed “Western Diet” that was designed to approximate the “typical” human diet of North America and Europe (Research Diets; New Brunswick, N.J.; Western Diet composition). The Western Diet contained greater than 5 times more fat than normal chow. [table] Mice were weighed daily beginning from the start of the 24 hour fasting period. Food intake was monitored continuously. Mice were bled by retroorbital eyebleed on days 7, 14, 21 and 28 after the initiation of the study. On day of REB, mice were dosed 1× with full dose 1 hour prior to bleed. Fat pads were dissected at the end of the study (day 31) weighed and frozen. The following fat pads were dissected: brown, inguinal, axial, mesenteric, renal, and epidydimal. Data were averaged and analyzed by ANOVA followed by a post-hoc Tukey's test with a p value of less then 0.05 indicating a statistical difference.

mice on western diet = assay: Leptin level in Western Diet treated animals (ELISA); assay type: in vivo; settings: mice fed western diet, bled days 7, 14, 21, 28, dosed 1 hour prior to bleed
Experimental: Blood from mice that were on western diet (Compound 102) were analyzed for leptin level. Mice were bled by retroorbital eyebleed on days 7, 14, 21 and 28 after the initiation of the study. On day of REB, mice were dosed once with full dose 1 hour prior to bleed. Leptin level was determined by ELISA (R&D Systems) as per directions. Data are expressed as the average±SEM. Data were averaged and analyzed by ANOVA followed by a post-hoc Tukey's test with a p value of less then 0.05 indicating a statistical difference.

AKT = AKT phosphorylation in vivo (immunoprecipitation); settings: mice, fat pads and livers removed ninety minutes after drug administration, FIG. 3
Experimental: as §3

[3] = test system: mouse model of hyperglycemia; assay: Oral glucose tolerance test; assay type: in vivo, mice
From the text: Type II diabetes is characterized by high blood glucose level in the presence of normal amounts of insulin. Animal models of type II diabetes involve administering a high level of glucose and measuring blood glucose level and the ability of the experimental animal to maintain glucose homeostasis over time. Several pharmacological structural classes can effectively regulate this hyperglycemic response including sulfonylureas, thiazoladinediones (PPARγ agonists; glitazones) or metformin (glucophage). These drug classes are also clinically approved for use in humans. In the current study, a mouse model of hyperglycemia has been established by administering high level of glucose to mice.
Glucose was formulated in water at a concentration of 150 mg/ml and dosed at a volume of 10 ml/kg to produce a dose of 1.5 g/kg. Glucose was measured using the Ascensia II Elite XL glucose monitor (Bayer). Glucose was measured by taking a small (2 mm) section off the tip of the tail, bleed onto glucose test strip. Data for each time point was analyzed by ANOVA and post-hoc Tukey's test. A p value of less then 0.05 was used to indicate statistical significance. Two studies were conducted with the following Compound 102.
In study 1, mice were dosed with Compound 102 and glucose as follows:
In study 2, mice were dosed with Compound 102 and glucose as follows.
Study 3 tested Compound 102 and was conducted as follows: […]

[4] = IP twice/day over four weeks, 5, 15, 50 mg/kg
[5] = study 1, mice, single administration, 30 mg/kg

`Cc1cccc(Oc2cnc(=O)[nH]c2)c1` [Compound 102] was tested, and the “acute blood glucose response in dose groups” value ([1]; 15 mg/kg and 50 mg/kg dose groups, upon study initiation and on weekly blood glucose testing) was “acute dose response”, the animal weight gain [1, 4] was “dose dependent effect” and the blood glucose level [1, 4] was “dose dependent effect”. The “blood glucose level following acute administration” value ([1]; measured two hours after first dose) was “reduce blood glucose level”, the weight-gain response (Db/Db mice; chronic administration, 5, 15, 50 mg/kg bid) was “significantly inhibited” and the defecation (Db/Db mice; chronic administration, bid) was “defecated normally”. The “phosphorylation of IRS-1” value (IRS-1) was “increases”, the “blood glucose level after oral glucose administration” value (Zucker rats) was “reduced blood glucose level” and the “brown, axial, inguinal, renal and epididymal fat pad increases” value ([2]; fat pads dissected day 31) was “significantly reduced”. For the same compound, the “weight gain (absolute weight and weight change from day 0)” value ([2]; highest dose tested 30 mg/kg/day) was “significantly reduced”, the blood leptin level (mice on western diet) was “reduced leptin level to those fed a normal diet” and the “phosphorylation of AKT” value (AKT) was “increases”. The “normal blood glucose level (pre-glucose loading)” value [3, 5] was “significantly decreased”, the “time after drug administration at which significance was lost” value [3, 5] was 90 min and the “blood glucose level produced by oral glucose administration” value ([3]; study 1, mice, single administration, 30 mg/kg, oral glucose 1.5 g/kg) was “significantly attenuated”. For the same compound, the “effect on blood glucose level” value ([3]; study 2, mice, increased (repeated) dosing) was “more dramatic effect”.

With `CN(C)C(=N)N=C(N)N` [metformin, reference compound] the blood glucose load ([3]; validation of the mouse model of hyperglycemia) was “effectively reduce”.

In the case of `O=c1ncc(Oc2cccc(Cl)c2)c[nH]1` [Compound 105], the “baseline blood glucose level” value ([3]; mice, single dose of 2 or 10 mg/kg) is reported as “significantly depressed” and the “blood glucose level at all time points after administration” value ([3]; mice, single dose of 2 or 10 mg/kg, P<0.05) is reported as “significantly (P<0.05) reduced”.
